Consider 2 compounds from article PMC7291858, “An Enhanced Variant Designed From DLP4 Cationic Peptide Against Staphylococcus aureus CVCC 546” (Frontiers in Microbiology, 2020).

≈ marks a conversion by molar mass, not a printed value. Ends that are not written are not given here. Peptide text beside a SMILES is read from it. Where only a bound is given, the exact number is not on record here.

One series concerns S. aureus ATCC 43300. The format is cell-based, Staphylococcus aureus. To be noted: microtiter, serial 2-fold dilutions, 37°C, 16∼20 h, triplicate; – = no activity. The method, boiled down:
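Broth microdilution format: peptides diluted 2-fold serially, same inoculum per well, incubated 16∼20 h at 37°C, with vancomycin as antibiotic control. Values are the lowest concentrations preventing visible growth, determined in triplicate.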

Series [1] concerns Staphylococcus aureus CVCC 546. As to the kind of experiment: microbe, parasite or virus in culture. Format: cell-based. How it is done:
(§1) The minimal inhibitory concentration (MIC) was evaluated by a microtiter plate assay ([Wiegand et al., 2008]). Serial 2-fold dilutions of test peptides were placed into a 96-well plate containing identical bacterial inoculum and incubated at 37°C for 16∼20 h. Vancomycin was used as antibiotic control. The MIC value was defined as the lowest peptide concentration where no visible growth occurred. All tests were made in triplicate.

Series [2] relates to S. epidermidis ATCC 12228. Briefly: MIC, microtiter plate assay. The format is cell-based, Staphylococcus epidermidis. To be noted: 37°C, 16∼20 h, triplicate. How it is done:
as §1

The subject of a further series is S. suis CVCC 3928. Briefly: MIC, microtiter plate assay. The format is cell-based, Streptococcus suis. To be noted: 37°C, 16∼20 h, triplicate. The protocol: as §1
The test system of series [3] is Escherichia coli ATCC 25922. Briefly: MIC, microtiter plate assay. Format: cell-based. To be noted: 37°C, 16∼20 h, triplicate. The protocol:
as §1

The subject of series [4] is Salmonella pullorum CVCC 533. Briefly: MIC, microtiter plate assay. The format is cell-based. To be noted: 37°C, 16∼20 h, triplicate. The protocol:
as §1

Series [5] concerns Streptococcus pneumoniae CVCC 2350. As to the kind of experiment: MIC, microtiter plate assay. Format: cell-based. To be noted: 37°C, 16∼20 h, triplicate. How it is done: as §1
A further series relates to E. coli K88. Briefly: MIC, microtiter plate assay. Format: cell-based, Escherichia coli. To be noted: 37°C, 16∼20 h, triplicate. How it is done:
as §1

The next series has as its system S. enteritidis CVCC 3377. Briefly: MIC, microtiter plate assay. The format is cell-based, Salmonella enteritidis. To be noted: 37°C, 16∼20 h, triplicate. The protocol:
as §1

The test system of a further series is mouse erythrocytes. As to the kind of experiment: Hemolytic activity. Format: cell-based. To be noted: 128 μg/mL, 8% (v/v) mouse erythrocytes in PBS, 1 h, 37°C, absorbance 576 nm, n = 3. The protocol: Hemolytic activity of peptides was evaluated with fresh mouse erythrocytes. Briefly, fresh mouse erythrocytes were collected, washed, and resuspended to a concentration of 8% (v/v) in PBS. Then, an aliquot of erythrocyte solution was added to 96-well plates containing an equal volume of peptide solution (1∼256 μg/mL) and was incubated for 1 h at 37°C. The erythrocyte suspension treated with 0.1% Triton X-100 and left untreated was employed as positive and negative controls, respectively. After centrifugation at 2000 rpm for 5 min, the supernatant was measured using a microplate reader at 576 nm. The percent hemolysis was calculated using the following formula: Percenthemolysis = [(A − A0)/(A100 − A0)] × 100%, where A, A100, and A0 represent the absorbance of the peptide sample and positive and negative controls, respectively.

The test system of series [6] is mouse macrophage RAW 264.7. Briefly: Cytotoxicity, MTT assay. To be noted: 256 μg/mL, RAW 264.7, MTT, n = 4. The format is cell-based. How it is done: The cytotoxicity of peptides toward mouse macrophage RAW 264.7 was evaluated by the MTT assay as described previously ([Wang X. et al., 2018]).
Series [7] deals with S. aureus CVCC 546. As to the kind of experiment: Membrane permeabilization, PI flow cytometry. The format is cell-based, Staphylococcus aureus. To be noted: 2 × MIC, 0.5 h, 10^8 CFU/mL, n = 3. How it is done:
The effects of peptides on membrane permeabilization were measured by flow cytometry ([Zhu et al., 2018]). […] Cells untreated and treated with 2 × MIC DLP4 or vancomycin were used as blank and positive controls. The fluorescence of the dye was monitored at an excitation wavelength of 488 nm and an emission wavelength of 635 nm.
In general terms: Flow cytometry measures light scatter and fluorescence of single cells or particles in a stream.

In series [8] the test system is S. aureus CVCC 546. As to the kind of experiment: Potassium ion (K+) leakage. Format: cell-based, Staphylococcus aureus. To be noted: 1 × MIC, treated for 150 min, 0.9% saline, 10^8 CFU/mL, ICP, n = 3. How it is done: To further investigate the effects of peptides on membrane integrity, K^+ leakage determination was carried out as previously described ([Miao et al., 2016]). Briefly, S. aureus CVCC 546 cells were centrifuged, washed, and resuspended in 0.9% sterile saline. The cell suspension (10^8 CFU/mL) was treated with peptides at 1 × MIC. Cells untreated and treated with DLP4 or nisin were used as blank and positive controls. At time intervals of 30, 60, 90, 120, and 150 min, the suspensions were centrifuged at 12000 rpm for 5 min. The supernatants were then subjected to measurement by Agilent inductively coupled plasma optical emission (ICP-OES).

In another series the test system is S. aureus CVCC 546 gDNA. Briefly: Gel retardation assay of gDNA binding. Set-up: species or system Staphylococcus aureus. To be noted: 10 min incubation, 1% agarose gel, ratios 0-5 (w/w). The protocol: A gel retardation assay ([Zhao et al., 2019]) was utilized to analyze the binding of peptides to genomic DNA (gDNA) extracted from S. aureus CVCC 546 with TIANamp Bacteria DNA Kit (TIANGEN Biotech Co., Ltd., Beijing). The peptides were incubated for 10 min with gDNA at different ratios of 0–5.0 (w/w) and then loaded on 1% agarose gel for electrophoresis analysis.

Series [9] has as its system S. aureus CVCC 546. Briefly: Time-kill assay. The format is cell-based, Staphylococcus aureus. To be noted: 2 × MIC, MHB, 10^5 CFU/mL, 37°C, n = 3. From the text: Time-kill assay was used to assess the killing rates of S. aureus cells by AMPs in vitro, done by measuring the number of viable bacteria left at various times after exposure to the peptides. […] At different time intervals, a certain sample was taken, serially diluted, and plated on MHA for colonies counting. Cells treated with 2 × MIC DLP4 or vancomycin and left without treatment were used as the positive and blank controls, respectively ([Flamm et al., 2019]).

For series [10], the system named is S. aureus CVCC 546. As to the kind of experiment: Post-antibiotic effect (PAE). Format: cell-based, Staphylococcus aureus. To be noted: 2 × MIC, 2 h exposure, mean ± SD, n = 3. How it is done: The PAE was determined by exposing S. aureus cells to antimicrobial agent at 1×, 2×, or 4 × MIC for 2 h. After drug removal by dilution, the bacterial culture was incubated at 37°C and 250 rpm. An aliquot of samples (50 μL) were taken for CFU counts at different time intervals until bacterial cultures became turbid. Bacteria treated with DLP4 or vancomycin and left without treatment were used as the positive and blank controls, respectively. The PAE was calculated using the following formula: PAE = T − C, where T is the time for the CFU counts to increase by 10-fold above the count observed immediately after drug removal, and C is the corresponding time for the untreated control ([Oh et al., 2019]).

Series [11] has as its system S. aureus CVCC 546. Briefly: Mouse thigh infection model, CFU in thigh muscle. To be noted: 10 mg/kg single i.p. dose 2 h post-infection, read 24 h post-infection, n = 6. The format is in vivo, mouse (female CD-1). The protocol:
(§2) Mouse experiments were carried out at Gene Engineering Laboratory, Feed Research Institute of Chinese Academy of Agricultural Sciences (CAAS) and complied with institutional animal care and use policies and procedures (AEC-CAAS-20090609). All animal studies were performed with female CD-1 mice, 6∼7 weeks old.
(§3) S. aureus CVCC 546 in the exponential phase were resuspended in MHB and adjusted to 1 × 10^8 CFU/mL, a 0.1-mL inoculum was injected into the right thighs of mice. At 2 h post-infection, mice (n = 6) were administered intraperitoneally (i.p.) with peptides at 2.5, 5, or 10 mg/kg. Mice raised without any treatment, or treated with PBS, 10 mg/kg DLP4, or vancomycin were used as the blank and negative and positive controls, respectively. At 24 h post-infection, peripheral blood was collected and serum was separated for cytokine levels analysis by using enzyme-linked immunosorbent assay (ELISA) kit (R&D systems, United States). Mice were euthanized, the right thighs were aseptically removed and processed for colonies counting ([Ling et al., 2015]).

For another series, the system named is IL-10. As to the kind of experiment: Mouse thigh infection model, serum cytokine ELISA. The format is in vivo, mouse (female CD-1). To be noted: 10 mg/kg i.p., serum 24 h post-infection. How it is done: as §2, §3
For orientation: ELISA stands for enzyme-linked immunosorbent assay.

Another series concerns IL-6. As to the kind of experiment: Mouse thigh infection model, serum cytokine ELISA. Format: in vivo, mouse (female CD-1). To be noted: 10 mg/kg i.p., serum 24 h post-infection. How it is done: as §2, §3
In a further series the test system is TNF-α. As to the kind of experiment: Mouse thigh infection model, serum cytokine ELISA. The format is in vivo, mouse (female CD-1). To be noted: 10 mg/kg i.p., serum 24 h post-infection. The protocol: as §2, §3
A further series concerns Gram-negative bacteria. Briefly: MIC, summary over Gram-negative strains. The format is cell-based. To be noted: E. coli and Salmonella strains of Table 2. The protocol: as §1
Series [12] in a line: Drop-diffusion assay of antibacterial activity. Format: cell-based.

`CC[C@H](C)[C@@H]1NC(=O)[C@@H]2CSSC[C@@H](C(=O)N[C@@H](CCCNC(=N)N)C(=O)N[C@@H](CCCCN)C(=O)O)NC(=O)[C@H](CC(N)=O)NC(=O)[C@@H]3CSSC[C@H](NC(=O)[C@H](C)NC(=O)[C@H](C)NC(=O)[C@H](Cc4c[nH]cn4)NC(=O)CNC(=O)[C@H](C(C)C)NC(=O)[C@H](CCCCN)NC(=O)[C@H](Cc4ccccc4)NC(=O)[C@@H]4CCCN4C(=O)[C@H](CO)NC(=O)[C@H](CC(C)C)NC(=O)[C@H](CC(C)C)NC(=O)[C@H](CC(=O)O)NC(=O)[C@@H](NC(=O)[C@@H](NC(=O)[C@H](C)N)[C@@H](C)O)CSSC[C@H](NC(=O)[C@H](Cc4c[nH]c5ccccc45)NC(=O)CNC(=O)CNC(=O)[C@H](CCCNC(=N)N)NC(=O)[C@H](CCCCN)NC(=O)CNC(=O)[C@H](CCCNC(=N)N)NC(=O)[C@H](C)NC1=O)C(=O)N[C@@H](CC(=O)O)C(=O)N[C@@H](CCCCN)C(=O)N[C@@H](CCCNC(=N)N)C(=O)N[C@@H](C)C(=O)N[C@@H](C(C)C)C(=O)N3)C(=O)N[C@@H](C)C(=O)N[C@@H](C)C(=O)N[C@@H](Cc1c[nH]cn1)C(=O)N2` [DLP4] (HELM PEPTIDE1{A.T.C.D.L.L.S.P.F.K.V.G.H.A.A.C.A.A.H.C.I.A.R.G.K.R.G.G.W.C.D.K.R.A.V.C.N.C.R.K}$PEPTIDE1,PEPTIDE1,3:R3-30:R3|PEPTIDE1,PEPTIDE1,16:R3-36:R3|PEPTIDE1,PEPTIDE1,20:R3-38:R3$$$V2.0; N-terminus and C-terminus assumed): the “A1 (MIC against S. aureus ATCC 43300)” value in the series on S. aureus ATCC 43300 was determined as 16 mg/L. Further, the MIC is 16 in [1] (Table 1, – = no activity); 3.75 µM (≈ 16 µg/mL) in [1] (microtiter, 37°C, 16∼20 h, triplicate); 14.99 µM (≈ 64 µg/mL) in series [2]; 3.75 µM (≈ 16 µg/mL) with S. suis CVCC 3928; greater than 29.98 µM in series [3]; greater than 29.98 µM in series [4]. The MIC in series [5] is 7.50 µM (≈ 32 µg/mL); with E. coli K88 it was greater than 29.98 µM; in the series with S. enteritidis CVCC 3377, greater than 29.98 µM. The compound also had a hemolysis in the series with mouse erythrocytes of 0.61%. In series [6], the cell viability is recorded as 63.8%. Besides, the “percentage of PI-positive cells” value with S. aureus CVCC 546 [7] is 41.8%. The “level of released K+” value in the series with S. aureus CVCC 546 [8] came out at 0.72 mg/L. In the series with S. aureus CVCC 546 gDNA, the “peptide/gDNA mass ratio at which gDNA was completely blocked” value worked out at 2.5. The “peptide/gDNA mass ratio at which migration of gDNA began to be retarded” value in the series with S. aureus CVCC 546 gDNA is 0.5. Besides, in the series with S. aureus CVCC 546 [9], the “decrease of CFU counts within 1 h” value was determined as 2.7 log10 CFU/mL. In the series with S. aureus CVCC 546 [10], the PAE turned out to be 8.20 ± 0.19 h. Further, the “reduction of S. aureus in infected thigh muscles” value in the series with S. aureus CVCC 546 [11] is listed as 1.7 log10 (CFU/g). Further, the “downregulation of serum level of IL-10” value in the series on IL-10 is on record as 29.06 pg/mL. Also, the “downregulation of serum level of IL-6” value in the series on IL-6 is on record as 710.02 pg/mL. Further, the “downregulation of serum level of TNF-α” value in the series on TNF-α is recorded as 1103.30 pg/mL. In addition, in the series with Gram-negative bacteria, the “activity against Gram-negative bacteria” value was “no activity”.

For the compound “ATCDLLSPFKVGHAACAAHCIARGKRSGWCDKRAVCNCRK (also: bicyclic or more (positions not given here)) [ID7, DLP4 derivative changed at a conservative site]”, the antibacterial activity entry in [12] is listed as “no antibacterial activity”.

One may read the cell viability as a read-out of living cells in per cent, often relative to untreated cells. Read a low cell viability as more harm to the cells.
